Source: patent US9169241B2, “Quinolinyloxyphenylsulfonamides” (Max-Planck-Gesellschaft Zur Forderung der Wissenschaften …, priority 2009, dated 2015)
Where two headings read alike, the source gives them in different places.

Columns and labels:
[1] = system: Hs578T; assay: Matrigel outgrowth assay/branching assay; assay type: cell-based; settings: Homo sapiens, Hs-578T; HS578T cell line; Table Ib; read-out: Total branching inhibition in Matrigel HS578T
Procedure, shortened: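 Read-out: microscopic images of invasive branching structures at 48 h, 72 h and 96 h. Cells sat on a 3 mg/ml Matrigel layer (set 1 h, 37° C) with compound at 3.125, 1.56 and 0.78 μM or DMSO. A concentration counts as positive only with complete branching inhibition.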

[2] = system: cells; assay: Boyden chamber migration assay (Table VI); assay type: cell-based; settings: Homo sapiens, Hs-578T, 16 h, Hs578T cells; 16 h migration
Protocol: The Boyden chamber assay is based on a chamber of two medium-filled compartments separated by a microporous membrane of 8 μM (Cell culture insert 8.0 μM pore size, BD Biosciences, Bedford, Mass.). The boyden chamber migration assays were carried out according to the supplier's instructions. In general, 20000 cells are placed in the upper compartment with medium containing 0% FCS plus 0.1% BSA and are allowed to migrate 16 h through the pores of the membrane into the lower compartment, which is filled with cell culture medium containing 10% FCS as chemotactic agents. The cells remaining in the insert were removed with a cotton swab, and the cells on the bottom of the filter were fixed and counted. (Zhang Y X, et al. AXL is a potential target for therapeutic intervention in breast cancer progression. Cancer Res. 2008; 68:1905-15).

[3] = system: U118; assay: Apoptosis assay (Cellomics, nucleus condensation); assay type: cell-based; settings: Table III, read-out: Apoptosis induction in U118
Excerpt: (§1) The Cellomics BioApplication (Thermo Fischer Cellomics Products, Pittsburgh, Pa.) is an automated image analysis algorithm that provides detailed analysis of phenotypes related to apoptosis. As one of the most prominent characteristics of apoptotics cell a nucleus condensation takes place. This can be measured fluorescence signal intensity using a CCD camera on fully automated microscope system. The Cellomics system is able to quantify the fluorescence intensity per single nucleus and calculates the variation of signal intensity in each cell population. […] Additionally the number of detected cell decreases normally in apoptotic cell populations. In detail 5000 cell per 96 well were labeled with DNA intercalating dye (Hoechst 33342, Sigma, Steinheim, Germany) to visualize the nucleus in a fluorescence microscope under live conditions. The apoptosis assay was performed 24 h and 48 h after addition of compound at concentrations 12.5 μM, 6.25 μM, 3.125 μM, 1.56 μM, 0.78 μM, 0.39 μM as well as DMSO control for 48 h.

[4] = system: SF126; assay: Apoptosis assay (Cellomics, nucleus condensation); assay type: cell-based; settings: Homo sapiens, SF-126, Table III, read-out: Apoptosis induction in SF126
Excerpt: as §1

[5] = system: C8161; assay: Apoptosis assay (Cellomics, nucleus condensation); assay type: cell-based; settings: Homo sapiens, Table III, read-out: Apoptosis induction in C8161
Excerpt: as §1

[6] = system: Hs578T; assay: Apoptosis assay (Cellomics, nucleus condensation); assay type: cell-based; settings: Homo sapiens, Hs-578T, Table III, read-out: Apoptosis induction in Hs578T
Excerpt: as §1

[7] = system: SF763; assay: Apoptosis assay (Cellomics, nucleus condensation); assay type: cell-based; settings: Table III, read-out: Apoptosis induction in SF763
Excerpt: as §1

[8] = system: U138; assay: Apoptosis assay (Cellomics, nucleus condensation); assay type: cell-based; settings: Table III, read-out: Apoptosis induction in U138
Excerpt: as §1

[9] = system: tumor cell; assay: Matrigel outgrowth assay/branching assay (Table Va); assay type: cell-based
Protocol: The Matrigel outgrowth assay is based on the ability of tumor cell to penetrate a solid gel of extracellular matrix proteins mimicking the metastasis formation in vivo. While cells with low invasive potential appear as roundish cell or cell cluster, cells with high invasive potential penetrate the Matrigel and form polymorphic structures. In detail 65 μl of Matrigel matrix (Matrigel™ Matrix, BD Biosciences, Bedford, Mass., USA) with a concentration of 3 mg/ml have been polymerized in 96 well plates for 1 h at 37° C. Subsequently 5000 cell/well were seeded into each well containing cell culture medium and indicated compound with concentrations of 3.125 μM, 1.56 μM and 0.78 μM as well as DMSO control. After 48 h, 72 h and 96 h images of cell were taken on an inverted microscope using a 5× objective (Zeiss Axiovert S100 microscope Carl Zeiss UK, Welwyn Garden City, UK). Only compound concentrations were total branching inhibition was evident were accounted as positive. Method was used as previously described, with some modifications (Thompson E W, et al. Association of increased basement membrane invasiveness with absence of estrogen receptor and expression of vimentin in human breast cancer cell lines. J Cell Physiol 1992; 150:534-44).

[10] = system: viable cells in culture; assay: Cell viability assay at 10 μM (CellTiter-Glo, Table VII); assay type: cell-based; settings: compound 10 μM, 72 h;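 note: graded A 0-20%; B 21-40%; C 41-60%; D over 60% viable cells relative to DMSO control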
Procedure, shortened: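 Viable cell number was measured with the CellTiter-Glo Luminescent Cell Viability Assay (Promega), following the manufacturer's protocol, which quantifies ATP as a marker of metabolically active cells. In 96-well plates, 1000 cells/well in 100 μl medium were exposed to compound at 10 μM, or to DMSO control, for 72 h. Values were calculated relative to DMSO-control ATP.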

[11] = system: indicated cell line; assay: Wound healing migration assay (Table IV); assay type: cell-based; settings: compounds at 12.5, 6.25, 3.125 μM, 48 h-72 h
Protocol: This method mimics cell migration during wound healing in vivo. The basic steps involve creating a “wound” in a cell monolayer, capturing the images at the beginning and at regular intervals during cell migration to close the wound, and comparing the images to quantify the migration rate of the cells. In detail, 150000 cell/24 well have been seeded and allowed to form a monolayer overnight. Subsequently a “wound” or “scratch” has been performed with a 1000 μl pipette tip. The STDV of wound size is normally below 10% at time point t0. The assay was stopped by fixation with 0.05% Crystal violet/20% methanol when control scratches were closed. The assay was terminated between 48 h and 72 h depending on the migration potential of the indicated cell line. The “wounds” were visualized with a Zeiss Axiovert S100 microscope (Carl Zeiss UK, Welwyn Garden City, UK). The tested compounds were used at 12.5 μM, 6.25, 3.125 μM and DMSO control. IC50 values have been calculated as 50% wound size in between t0 and t48 or t72.

[12] = Homo sapiens, C8161 cells, read-out: Total branching inhibition in Matrigel C8161
[13] = Homo sapiens, Hs-578T, Hs578T cells, read-out: Total branching inhibition in Matrigel Hs578T
[14] = U118 cells, read-out: Total branching inhibition in Matrigel U118
[15] = U138 cells, read-out: Total branching inhibition in Matrigel U138
[16] = Homo sapiens, HCT-116, HCT116 def, read-out: percentage (%) of viable cells HCT 116def
[17] = Homo sapiens, HCT-116, HCT116 wt, read-out: percentage (%) of viable cells HCT 116wt
[18] = Homo sapiens, HT-29, HT29, read-out: percentage (%) of viable cells HT29
[19] = Homo sapiens, NCI-H358, H358, read-out: percentage (%) of viable cells H358
[20] = Homo sapiens, NCI-H1650, H1650, read-out: percentage (%) of viable cells H1650
[21] = Homo sapiens, NCI-H1666, H1666, read-out: percentage (%) of viable cells H1666
[22] = Homo sapiens, NCI-H1975, H1975, read-out: percentage (%) of viable cells H1975
[23] = Homo sapiens, NCI-H1993, H1993, read-out: percentage (%) of viable cells H1993
[24] = Homo sapiens, A549, read-out: percentage (%) of viable cells A549
[25] = Homo sapiens, HCC827, read-out: percentage (%) of viable cells HCC827
[26] = Homo sapiens, SW480, read-out: percentage (%) of viable cells SW480
[27] = RKO, read-out: percentage (%) of viable cells RKO
[28] = Homo sapiens, C8161 cells, read-out: IC50 Wound healing Assay C8161
[29] = SF763 cells, read-out: IC50 Wound healing Assay SF763

IC50 [2] [µM] | IC50 [3] [µM] | IC50 [4] [µM] | IC50 [5] [µM] | IC50 [6] [µM] | IC50 [7] [µM] | IC50 [8] [µM] | IC50 [9, 12] [µM] | IC50 [9, 13] [µM] | IC50 [9, 14] [µM] | IC50 [9, 15] [µM] | IC50 [11, 28] [µM] | IC50 [11, 29] [µM] | Compound | IC50 [1] [µM] | viability at 10 µM [10, 16] [%] | viability at 10 µM [10, 17] [%] | viability at 10 µM [10, 18] [%] | viability at 10 µM [10, 19] [%] | viability at 10 µM [10, 20] [%] | viability at 10 µM [10, 21] [%] | further results
≤ 5 | ≤ 12.5 | ≤ 12.5 | ≤ 12.5 | ≤ 12.5 | ≤ 12.5 | ≤ 12.5 | ≤ 5 | ≤ 5 | ≤ 5 | 5 to 50 | 12.5 to 50 | 12.5 to 50 | COc1cc2nccc(Oc3ccc(NS(=O)(=O)c4ccccc4C(F)(F)F)cc3F)c2cc1OCCCN1CCN(C)CC1 [Example 86, N-(3-Fluoro-4-{7-methoxy-6-[3-(4-methyl-piperazin-1-yl)-propoxy]-quinolin-4-yloxy}-phenyl)-2-trifluoromethyl-benzenesulfonamide] | ≤ 10 | 21 to 40 | 21 to 40 | 0 to 20 | 0 to 20 | 21 to 40 | 41 to 60 | viability at 10 µM [10, 22]: 21 to 40%; viability at 10 µM [10, 23]: 0 to 20%; viability at 10 µM [10, 24]: > 60%; viability at 10 µM [10, 25]: 41 to 60%; viability at 10 µM [10, 26]: 21 to 40%; viability at 10 µM [10, 27]: 21 to 40%
≤ 5 | 12.5 to 50 | ≤ 12.5 | ≤ 12.5 | ≤ 12.5 | ≤ 12.5 | ≤ 12.5 | ≤ 5 | ≤ 5 | ≤ 5 | 5 to 50 | ≤ 12.5 | 12.5 to 50 | CN1CCN(CCCOc2ccc3nccc(Oc4ccc(NS(=O)(=O)c5ccccc5C(F)(F)F)cc4F)c3c2)CC1 [Example 85, N-(3-Fluoro-4-{6-[3-(4-methyl-piperazin-1-yl)-propoxy]-quinolin-4-yloxy}-phenyl)-2-trifluoromethyl-benzenesulfonamide] | ≤ 10 | 21 to 40 | 0 to 20 | 21 to 40 | 21 to 40 | 21 to 40 | 41 to 60 | viability at 10 µM [10, 22]: 21 to 40%; viability at 10 µM [10, 23]: 0 to 20%; viability at 10 µM [10, 24]: 41 to 60%; viability at 10 µM [10, 25]: 0 to 20%; viability at 10 µM [10, 26]: 0 to 20%; viability at 10 µM [10, 27]: 0 to 20%
≤ 5 | 12.5 to 50 | 12.5 to 50 | ≤ 12.5 | ≤ 12.5 | ≤ 12.5 | ≤ 12.5 | ≤ 5 | ≤ 5 | ≤ 5 | 5 to 50 | 12.5 to 50 | ≤ 12.5 | COc1cc2c(Oc3ccc(NS(=O)(=O)c4ccccc4F)cc3F)ccnc2cc1OCCCN1CCN(C)CC1 [Example 26, 2-Fluoro-N-(3-fluoro-4-{6-methoxy-7-[3-(4-methyl-piperazin-1-yl)-propoxy]-quinolin-4-yloxy}-phenyl)-benzenesulfonamide] | ≤ 10 | – | – | – | – | – | – | melting point: 185 to 186 °C
≤ 5 | 12.5 to 50 | ≤ 12.5 | ≤ 12.5 | ≤ 12.5 | ≤ 12.5 | ≤ 12.5 | ≤ 5 | ≤ 5 | ≤ 5 | 5 to 50 | ≤ 12.5 | 12.5 to 50 | COc1cc2c(Oc3ccc(NS(=O)(=O)c4ccc(F)c(F)c4F)cc3F)ccnc2cc1OCCCN1CCN(C)CC1 [Example 17, 2,3,4-Trifluoro-N-(3-fluoro-4-{6-methoxy-7-[3-(4-methyl-piperazin-1-yl)-propoxy]-quinolin-4-yloxy}-phenyl)-benzenesulfonamide] | ≤ 10 | – | – | – | – | – | – | melting point: 88 to 90 °C

Compound | IC50 [2] [µM] | IC50 [3] [µM] | IC50 [4] [µM] | IC50 [5] [µM] | IC50 [6] [µM] | IC50 [7] [µM] | IC50 [8] [µM] | IC50 [9, 12] [µM] | IC50 [9, 13] [µM] | IC50 [9, 14] [µM] | IC50 [9, 15] [µM] | IC50 [11, 28] [µM] | IC50 [11, 29] [µM] | IC50 [1] [µM] | viability at 10 µM [10, 16] [%] | viability at 10 µM [10, 17] [%] | viability at 10 µM [10, 18] [%] | viability at 10 µM [10, 19] [%] | viability at 10 µM [10, 20] [%] | viability at 10 µM [10, 21] [%] | further results
O=S(=O)(Nc1ccc(Oc2ccnc3cc(OCCCCN4CCOCC4)ccc23)c(F)c1)c1cc(F)ccc1F [Example 84, 2,5-Difluoro-N-{3-fluoro-4-[7-(4-morpholin-4-yl-butoxy)-quinolin-4-yloxy]-phenyl}-benzenesulfonamide] | ≤ 5 | ≤ 12.5 | ≤ 12.5 | ≤ 12.5 | ≤ 12.5 | ≤ 12.5 | ≤ 12.5 | ≤ 5 | ≤ 5 | ≤ 5 | ≤ 5 | ≤ 12.5 | 12.5 to 50 | ≤ 10 | 0 to 20 | 0 to 20 | 0 to 20 | 0 to 20 | 0 to 20 | 41 to 60 | viability at 10 µM [10, 22]: 21 to 40%; viability at 10 µM [10, 23]: 0 to 20%; viability at 10 µM [10, 24]: > 60%; viability at 10 µM [10, 25]: > 60%; viability at 10 µM [10, 26]: 0 to 20%; viability at 10 µM [10, 27]: 0 to 20%
